Measurements published in patent US20220194939A1, “Novel compounds and methods of use treating fructose-related disorders or diseases” (Colorado Research Partners, LLC, priority 2019, published 2022).
Structures can show the parent of a compound that is named as a salt.

Molecular target: T1, KHK (Homo sapiens, UniProt P50053)
T1 construct: (His)6 tag (N); thrombin cleavage site (N); made in house; host or cells: E. coli BL-21 (DE3)
T1 sequence (P50053 1-298): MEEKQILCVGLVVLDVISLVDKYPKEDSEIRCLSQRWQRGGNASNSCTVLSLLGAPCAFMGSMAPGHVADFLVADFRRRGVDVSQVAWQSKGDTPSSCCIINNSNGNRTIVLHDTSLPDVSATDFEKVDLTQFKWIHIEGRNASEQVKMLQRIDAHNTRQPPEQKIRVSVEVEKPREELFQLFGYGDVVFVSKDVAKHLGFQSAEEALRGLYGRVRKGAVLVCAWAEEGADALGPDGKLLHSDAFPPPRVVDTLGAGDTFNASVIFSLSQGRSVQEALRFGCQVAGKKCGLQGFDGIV
Experiment: coupled enzyme assay for KHK activity
Format: biochemical
Settings: purified human recombinant KHK, PK/LDH coupled assay, A340 at 25° C., 0.1 mM ATP, 0.2 mM fructose; isoform (KHK-C or KHK-A) not given
From the text: Specific coupled enzyme screening assays were developed for KHK-C and KHK-A using recombinant proteins. Purified human recombinant KHK-C and KHK-A were produced using by expression in E. coli BL-21 (DE3) using IPTG induction as a His-tagged fusion proteins and purified using Ni-NTA chromatography on His-Trap FF columns. For KHK-C, the coding region from NCBI refseq number NM_006488 was inserted at the Nde I site of pET28a(+) vector, which puts it downstream from an amino-terminal (His)6 tag and a thrombin cleavage site. The same was done for KHK-A using the coding regions from NCBI refseq number NM_000221.2. The protein was expressed in BL-21 (DE3) using IPTG induction and purified using Ni-NTA (GE His Trap FF) column. The protein was washed with 100 column volumes, eluted with 3 column volumes, and dialyzed with HEPES, pH 7.4 buffers containing 20, 500, and 0 mM imidazole, respectively. The dialysate was concentrated by ultrafiltration (10kD MWCO) to >15 mg/mL protein. The protein prep was >95% pure on SDS-PAGE and the molecular weight was confirmed by relative mobility to be 33,730 Da (34,826 expected).
The assay uses the product of the KHK reaction, ADP, to drive a signal measured in real time for measuring the reaction rate. This consists of a 3-step, coupled-enzyme process by which pyruvate kinase (PK), which converts the ADP from the KHK reaction along with phosphoenolpyruvate (PEP) to ATP and pyruvate, respectively. The pyruvate is converted along with NADH to lactate and NAD+ by lactate dehydrogenase (LDH). The disappearance of NADH is measured kinetically by monitoring A340 at 25° C. for 15 minutes. The enzymatic assay was carried out in a total reaction volume of 200 μL containing 33 mM triethanolamine-HCl, pH 7.4, 6 mM MgCl2, 100 mM KCl, 0.1 mM ATP, 1.33 mM PEP, 0.3 mM NADH, 0.2-1.0 U of PK, 0.2-1.0 U of LDH, and 150-240 nM KHK-C or KHK-A (0.01-0.02 U). Fructose was added to initiate the reactions to 0.2 mM, except for the no fructose controls which utilized water. This high-throughput assay was used to identify inhibitors that have an IC50 value<1 μM for KHK-C and to confirm that those values for KHK-A were not more than 2-fold lower.

SMILES | IC50 [µM]
CCCCCCCC(=O)OC[C@H](NC(=O)OC(C)C)C(=O)Nc1ccc2cnn(-c3cccc(C)c3)c2c1 [Compound 35, (S)-2-((isoproxycarbonyl)amino)-3-oxo-3-((1-(m-tolyl)-1H-indazol-6-yl)amino)propyl octanoate] | 200
CCOC(=O)N[C@@H](CO)C(=O)Nc1ccc2cnn(-c3cccc(C)c3)c2c1 [Compound 36, (S)-ethyl (3-hydroxy-1-oxo-1-((1-(m-tolyl)-1H indazol-6-yl)amino)propan-2-yl)carbamate] | 0.4
CC(=O)OC[C@H](N)C(=O)Nc1ccc2cnn(-c3cccc(C)c3)c2c1 [Compound 41, (S)-2-amino-3-oxo-3-((1-(m-tolyl)-1H-indazol-6-yl)amino)propyl acetate hydrochloride] | 2.7
Cc1cccc(-n2ncc3cc(C)c(NC(=O)[C@@H](N)CO)cc32)c1 [Compound 42, (S)-2-amino-3-hydroxy-N-(5-methyl-1-(m-tolyl)-1H-indazol-6-yl)propanamide hydrochloride] | 1.8
Cc1cccc(-n2ncc3cnc(NC(=O)[C@@H](N)CO)cc32)c1 [Compound 44, (S)-2-amino-3-hydroxy-N-(1-(m-tolyl)-1H-pyrazolo[4,3-c]pyridin-6-yl)propanamide hydrochloride] | 15
CCc1nn(-c2cccc(C)c2)c2cc(NC(=O)[C@@H](N)CO)c(C)cc12 [Compound 46, (S)-2-amino-N-(3-ethyl-5-methyl-1-(m-tolyl)-1H-indazol-6-yl)-3-hydroxypropanamide hydrochloride] | 1.9
Cc1cccc(-n2nc(C(F)F)c3ccc(NC(=O)[C@@H](N)CO)cc32)c1 [Compound 48, (S)-2-amino-N-(3-(difluoromethyl)-1-(m-tolyl)-1H-indazol-6-yl)-3-hydroxypropanamide hydrochloride] | 0.46

More lines, in order of falling IC50, values ahead:

IC50 [µM] | SMILES
4 | Cc1cccc(-n2ncc3ccc(NC(=O)[C@H](CO)NC(=O)OC(C)C)cc32)c1 [Compound 37, (S)-isopropyl (3-hydroxy-1-oxo-1-((1-(m-tolyl)-1H-indazol-6-yl)amino)propan-2-yl)carbamate]
1.86 | CCc1nn(-c2cccc(C)c2)c2cc(NC(=O)[C@@H](N)CO)ccc12 [Compound 43, (S)-2-amino-N-(3-ethyl-1-(m-tolyl)-1H-indazol-6-yl)-3-hydroxypropanamide hydrochloride]
1.4 | Cc1cccc(-n2ncc3ccc(NC(=O)C(N)C(N)=O)cc32)c1 (stereo not shown) [Compound 38, 2-amino-N1-(1-(m-tolyl)-1H-indazol-6-yl)malonamide hydrochloride]
0.7 | Cc1cccc(-n2ncc3ccc(NC(=O)C(N)C(=O)O)cc32)c1 (stereo not shown) [Compound 39, 2-amino-3-oxo-3-((1-(m-tolyl)-1H-indazol-6-yl)amino)propanoic acid hydrochloride]
0.25 | Cc1cccc(-n2ncc3ncc(NC(=O)[C@@H](N)CO)cc32)c1 [Compound 45, (S)-2-amino-3-hydroxy-N-(1-(m-tolyl)-1H-pyrazolo[4,3-b]pyridin-6-yl)propanamide hydrochloride]
0.14 | Cc1cccc(-n2nnc3ccc(NC(=O)[C@@H](N)CO)cc32)c1 [Compound 40, (S)-2-amino-3-hydroxy-N-(1-(m-tolyl)-1H-benzo[d][1,2,3]triazol-6-yl)propanamide hydrochloride]
